# Source: patent US9371527B2, “Compositions and methods related to protein displacement therapy for myotonic distrophy” (University of Rochester, priority 2006, dated 2016)
# Tested on: interaction of CUG repeat RNA with recombinant MBNL1 protein (MBNL1-PL)
# Assay: Beta-galactosidase enzymatic complementation assay
# Format: binding, human
# Settings: (CUG)109 tethered to streptavidin plate
# Description: FIGS. 33A and 33B. […] (CUG)109 transcripts are tethered to the surface of a streptavidin-coated microtiter plate using a capture oligonucleotide that is biotinylated. The capture oligo anneals to complementary sequence at the 3′ end of the CUG repeat RNA. Recombinant human MBNL1 is expressed as a fusion with the PL fragment of beta-galactosidase. PL is a 55 amino acid fragment of beta-galactosidase. […] After incubation with test compound, unbound MBNL1-PL is washed away (FIG. 33B). Next, the complementing fragment of beta-galactosidase is added to determine the amount of MBNL1-PL that continues to interact with (CUG)109 RNA and thereby is retained on the microtiter plate. The binding of complementing fragment of beta-galactosidase to PL reconstitutes its enzymatic activity. This activity is then determined by adding substrate to provide a fluorescence or chemiluminescence signal from active beta-galactosidase. […]
# (CUG)109 transcripts are tethered to the surface of a streptavidin-coated microtiter plate using a capture oligonucleotide that is biotinylated. […] Recombinant human MBNL1 is expressed as a fusion with the PL fragment of beta-galactosidase. […] This activity is then determined by adding substrate to provide a fluorescence or chemiluminescence signal from active beta-galactosidase. […]
compound,measurement,value
CCCN(CCCN(C)C)c1cc(/C=C2/Sc3ccccc3N2C)c2ccccc2[n+]1-c1ccccc1 [SybrGreen],amount of MBNL1-PL retained on plate (beta-galactosidase activity),reduce the amount of MBNL1-PL retained on plate
